Our source for the TGI and GI50 values is PubChem BioAssay (NCI).

What all share (assay): inhibition of tumour cell growth, NCI panel, 48 h
The test system of test [1] is SF-539 CNS.
Test [2] relates to A498 renal.
In test [3] the test system is HCT-15 colon.
Test [4] has as its system NCI-H522 lung.
In test [5] the test system is SNB-19 CNS.
In test [6] the test system is SW-620 colon.
For test [7], the system named is UACC-257 melanoma.
The test system of test [8] is IGROV1 ovarian.
Test [9] has as its system MCF7 breast.

Each structure is given as a SMILES string. Several values for one entry are separate records, joined by “and”; a condition that tells them apart may be missing. Identical values can stand only once.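 96-well plates; 48 h exposure; 5 concentrations. Endpoints by linear interpolation between flanking doses. Not reached: highest tested concentration assigned. GI50: concentration for 50% inhibition of growth. The concentration for full growth arrest is given as TGI.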

With `c1ccc(SC(Sc2ccccc2)=C2CCC2)cc1`, the TGI in test [1], in test [2], in test [3], in [4], in test [5] and in test [6] was over 100 µM each time. For the same molecule, the TGI in [7] is over 100 µM.
With `CCC[CH2][Sn](=[O])[CH2]CCC`, the GI50 in [1], in [8], in [3], in test [4], in [5] and in test [6] was over 50 µM each time. Moreover, the GI50 in test [7] is over 50 µM. Besides, the TGI in [1], in test [8], in test [3], in [4], in test [5] and in test [6] was over 50 µM throughout. The molecule also yielded a TGI in test [7] of over 50 µM.
Consider `O=C1c2ccccc2C(=O)N1CCc1ncc(-c2ccccc2)[nH]1`, for which the TGI in test [1], in [2], in test [8], in test [3], in test [4] and in test [9] was over 100 µM each time. The TGI in test [5], in test [6] and in [7] was over 100 µM each time.
Regarding `CN(C)c1ccc(/C=c2\sc3nnc(-c4ccco4)n3c2=O)cc1`, the TGI in test [1], in [2], in test [8], in test [4], in test [5] and in test [6] was over 100 µM each time. This molecule displayed a TGI in test [7] of over 100 µM.
Regarding `CCCCCCCCCCCCSC(=S)c1c(C)[nH]n(-c2ccccc2)c1=O`, the TGI in test [1] is 33.9 µM; in test [2], over 50 µM; in test [8], over 50 µM; in [3] it was over 50 µM; in test [5], over 50 µM; in test [6], over 50 µM. Moreover, the TGI in [7] is 29.5 µM.
With `CC(C)(C)C(=O)N1C(C(=O)O)Cc2ccccc2[C@@H]1Cc1ccccc1` (stereo not given in full), the TGI in test [1], in test [2], in test [8], in test [3], in [4] and in test [5] was over 100 µM in each case. In addition, the TGI in test [6] and in [7] was over 100 µM each time.
For `Cc1ccc(NCC2(/N=C/c3ccccc3)OC(CO)C(O)C2O)cc1` (stereo not given), the TGI in test [1], in test [8], in [3], in test [4], in test [5] and in test [6] was over 100 µM in each case. This molecule registered a TGI in test [7] of over 100 µM.
With `CC(Oc1ccc2c(-c3ccc(Cl)cc3)cc(=O)oc2c1)C(=O)O` (stereo not given), the TGI in [1], in [2], in test [8], in test [4], in test [5] and in test [6] was over 100 µM throughout. In addition, in test [7], the TGI was over 100 µM.
Regarding `Nc1nc(=O)n(C2CCC(CO)O2)cc1F` (stereo not given), the TGI in test [3], in test [4], in test [5], in test [6] and in [7] was over 100 µM throughout.
For `COc1ccc(/C=C/c2cc(OC)c(OC(C)=O)c(OC)c2)cc1`, the TGI in [8] was over 100 µM; in test [3], 80.6 µM; in test [4], 46.1 µM; in [5] it was over 100 µM; in [7] it was 66.9 µM.
As for `NC(=S)N1N=C2CCCCCC[C@@H]2[C@H]1c1ccccc1`, the TGI is over 100 µM in [1]; over 100 µM in [2]; over 100 µM in test [8]; over 100 µM in [3]; 82.9 µM in test [4]; over 100 µM in [5]. Besides, the TGI in test [6] and in test [7] was over 100 µM throughout.
As for `O=[N+]([O-])c1nccn1CC(O)c1ccccc1` (stereo not given), the TGI in [1], in [2], in test [8], in [3], in test [4] and in test [5] was over 100 µM in each case. Besides, the TGI in test [6] and in test [7] was over 100 µM each time.
On to `O=C(CC1(O)C(=O)Nc2c(Cl)cc(Cl)cc21)c1ccccc1` (stereo not given), for which the TGI in [1], in test [2], in test [8], in [3], in [4] and in [5] was over 100 µM each time. Further, the TGI in test [6] and in [7] was over 100 µM each time.
On to `COC(=O)CCC(=O)Nc1ccc(Cl)cc1C`, for which the TGI was over 100 µM in test [1]; over 79 µM in [2]; over 100 µM in [8]; over 100 µM in [3]; over 100 µM in [4]; over 100 µM in test [5]. In addition, the TGI in test [6] and in test [7] was over 100 µM throughout.
As to `Nc1ncc(-c2ccc3ncnc(Nc4cccc(Cl)c4)c3c2)cn1`, the GI50 in [1] is 0.279 µM and 2.14 µM; in test [8] it was 0.0206 µM; in test [3] it was 0.217 µM and 1.57 µM; in test [4], 0.128 µM; in [9], 0.186 µM; in test [5], 0.387 µM and 2.28 µM. Also, the GI50 in test [7] was over 100 µM. Moreover, the TGI in test [1] is over 100 µM; in test [8] it was 0.223 µM; in test [3], over 100 µM; in [4] it was 4.95 µM; in test [5], over 100 µM; in test [7], over 100 µM.
`CC(=O)OC12C(C)=C(C)C(=O)N1c1ccccc1N2C(C)=O` (stereo not given): the TGI in test [8], in test [3], in test [4], in test [5], in test [6] and in [7] was over 100 µM throughout.
On to `CSC(=NC(=O)c1ccccc1Cl)SCCSC(=NC(=O)c1ccccc1Cl)SC`, for which the TGI in test [1], in test [2], in test [8], in test [3], in test [4] and in [5] was over 100 µM in each case. Further, the TGI in test [6] and in test [7] was over 100 µM in each case.
As to `Cc1cccc(-c2nnc3s/c(=C\c4ccc(N(C)C)cc4)c(=O)n23)c1`, the TGI in test [1], in test [2], in [8], in test [4], in test [5] and in test [6] was over 100 µM in each case. In test [7], this molecule came in with a TGI of over 100 µM.
Regarding `COc1ccc(CC(=O)NCCc2ccc(OC)c(OC)c2OC)cc1`, the TGI is 36.7 µM in test [1]; over 100 µM in test [2]; over 100 µM in test [8]; over 100 µM in test [4]; over 100 µM in test [5]; over 100 µM in test [6]. The same molecule returned a TGI in test [7] of over 100 µM.
For the molecule `O=C(C[n+]1ccccc1)N/N=C(/CCC(=O)N(Cc1ccccc1)Cc1ccccc1)CC(=O)c1ccccc1`, the TGI in test [1], in test [2], in [8], in test [3], in test [4] and in test [5] was over 100 µM each time. Also, the TGI in test [6] and in test [7] was over 100 µM each time.
Regarding `O=C1c2ccccc2-c2c3c(cc4ccnc1c24)OCO3`, the GI50 in test [1] was 7.97 µM and 3.53 µM; in test [4] it was 0.885 µM and 4.26 µM; in [7], 5.23 µM and 2.59 µM. Also, the TGI in [1] is 53.5 µM and 37.8 µM; in test [2], 12.8 µM; in test [8] it was > 100 µM and 34.3 µM; in test [3], 68.3 µM and > 100 µM; in test [4] it was 13.3 µM and 15.5 µM; in [5], > 100 µM and 77.4 µM. The TGI was 23.4 µM and > 100 µM in test [6]; 39.2 µM and 11.7 µM in test [7].
Take `C=C(C)[C@@H]1CC[C@]2(CO)CC[C@]3(C)[C@H](CC[C@@H]4[C@@]5(C)CCCNC(C)(C)[C@@H]5CC[C@]43C)[C@@H]12`: the GI50 was 1.58 µM in test [1]; 2.17 µM in [2]; 1.66 µM in test [8]; 1.39 µM in test [3]; 1.29 µM in test [9]; 1.75 µM in [5]. In addition, the GI50 is 1.81 µM in [6] and 1.95 µM in [7]. In addition, the TGI amounted to 3.01 µM in test [1]; 5.63 µM in test [2]; 3.26 µM in test [8]; 2.77 µM in test [3]; 2.77 µM in test [9]; 3.2 µM in test [5]. Also, the figures for the TGI in test [6] and in test [7] were 3.41 µM and 3.73 µM, respectively.
`COc1ccc(C(=O)C2CCC(C(=O)O)C2)cc1` (stereo not given): the TGI in test [1], in [2], in [8], in [3], in [4] and in [5] was over 100 µM in each case. Moreover, the TGI in test [6] and in test [7] was over 100 µM throughout.
As to `CCOC(=O)C12CCCC1(O)N(NC(=O)OC)C(C)=C2C(=O)OC` (stereo not given), the TGI in test [1], in test [2], in test [8], in [3], in [4] and in [5] was over 100 µM in each case. Further, the TGI in [6] and in test [7] was over 100 µM in each case.
